Experiment [1] deals with memory power of rats (object recognition). Nature of the experiment: Object recognition test. The format is in vivo. Particulars: oral 1.0, 3.0 or 10 mg/kg in Tylose immediately after first passage, second passage 24 hours later. Here is the method: The object recognition test is a memory test. It measures the ability of rats (and mice) to differentiate between known and unknown objects.
The test was carried out as described (Blokland et al. NeuroReport 1998, 9, 4205-4208; Ennaceur, A., Delacour, J., Behav. Brain Res. 1988, 31, 47-59; Ennaceur, A., Meliani, K., Psychopharmacology 1992, 109, 321-330; Prickaerts, et al. Eur. J. Pharmacol. 1997, 337, 125-136).
In a first passage, a rat is confronted with two identical objects in an otherwise empty relatively large observation arena. The rat will investigate, i.e. sniff and touch, both objects thoroughly. In a second passage, after an interval of 24 hours, the rat is again placed in the observation arena. One of the known objects is now replaced by a new, unknown object. If a rat recognizes the known object, it will especially investigate the unknown object. After 24 hours, however, a rat has normally forgotten which object it has already investigated in the first passage, and will therefore inspect both objects to the same extent. […] It will investigate the new, unknown object in more detail than the already known one. This memory power is expressed in a discrimination index. […]

Experiment [2] concerns memory capability of mice. The conditions noted are these: avoidance test; cited from earlier work.

Molecules are shown by their SMILES.

The values below come from US20040152700A1, “Novel use of 2-phenyl-substituted imidazotriazinones” (priority 2001, published 2004).

On to `CCCc1nc(C)c2c(=O)[nH]c(-c3cc(S(=O)(=O)N4CCN(C)CC4)ccc3OCC)nn12` [Example 1, 2-[2-ethoxy-5-(4-methyl-piperazine-1-sulphonyl)-phenyl]-5-methyl-7-propyl-3H-imidazo[5,1-f][1,2,4]triazin-4-one], for which the “memory power in the second passage compared with the control condition” value in experiment [1] is “improved”.
With `CCCc1nn(C)c2c(=O)[nH]c(-c3cc(S(=O)(=O)N4CCN(C)CC4)ccc3OCC)nc12` [Sildenafil, 5-[2-ethoxy-5-(4-methylpiperazin-1-ylsulphonyl)phenyl]1,6-dihydro-1-methyl-3-propylpyrazolo[4,3-d]pyrimidin-7-one], in experiment [2], the “action on the memory capability” value is given as “improving action”.
